Measurements as given in patent US20210220368A1, “COMPOSITIONS COMPRISING TIMOLOL AND THEIR USE IN THE TREATMENT OF ROSACEA BY TOPICAL ADMINISTRATION” (Almirall, S.A., priority 2016, published 2021).

Experiments:
[1] = test system: TPA-induced ear oedema; conditions: topical brimonidine 0.2%, mice; Piwnica et al., J. Dermatol. Sci. 2014; cited from earlier work
[2] = test system: TPA-induced ear oedema; assay: TPA-induced ear oedema model in Balb/c mice; type: in vivo; conditions: timolol 1%, brimonidine 0.2% in acetone, topical, 30 min before and 15 min after TPA; ear weight at T+6 h; p<0.005
Procedure: Evaluation of the Anti-Oedema Effect of Timolol and Brimonidine after Two Topical Applications in the TPA-Induced Ear Oedema Model in Balb/c Mice.
The oedema is induced by means of a single application to the right ear of the mouse of 20 μl of a solution of TPA (phorbol 12-myristate 13-acetate) in acetone at 0.01%. The test compounds are diluted in acetone and applied 30 minutes before and 15 minutes after TPA. The weight of the mouse ears is measured at T+6 h and the weight of the left ear is subtracted from the one of the right ear.
Timolol was applied at a concentration of 1% before and after TPA application. The alpha agonist, brimonidine 0.2% was also tested for comparison.
Each group included 12 animals. Numbers above the bars indicate the percentage inhibition of the corresponding group of treated animals vs the control group.

[3] = test system: capsaicin-induced vasodilation; assay: Vasodilation (erythema) induced by topical capsaicin in the ear of CD1 mice; type: in vivo, CD-1 mice; conditions: timolol 1%, brimonidine 0.33%, oxymetazoline 0.88% solutions, topical to the ear before capsaicin; peak erythema 45 min after capsaicin, Mexameter
Procedure: Evaluation of the Effect of Topical Timolol, Brimonidine and Oxymetazoline in Vasodilation Induced by Topical Application of Capsaicin in the Ear of CD1 Mice
Neurogenic skin inflammation was induced by capsaicin (Alacapsin 0.075% cream) on the ear of CD-1 mice. Capsaicin induces the release of neuropeptides most of which have vasodilatory properties. In this model vasodilation is evaluated with a narrowband spectrophotometer probe (Mexameter) that measures peak absorption of haemoglobin. The quantity of light absorbed by the skin is calculated as Mexameter® arbitrary units, and this measure of erythema can be considered a surrogate of vasodilation. […] Treatment effects are reported at this maximal induction of erythema.
Timolol 1%, brimonidine 0.33% and oxymetazoline 0.88% solutions were applied topically to the mouse ear before capsaicin induction.
Results described represent peak erythema of four groups of animals and are reported as mexameter arbitrary units. Each group included 6-12 animals. Numbers above the bars indicate the percentage inhibition of the corresponding group vs the capsaicin control group.

[4] = test system: erythematotelangiectatic rosacea; conditions: topical timolol, human subjects with erythematotelangiectatic rosacea; Jaque et al., Rev. Chilena Dermatol 2012; cited from earlier work

Compound	inhibition of TPA-induced ear oedema [1] [%]	inhibition of ear oedema vs control group [2]	percentage inhibition of ear vasodilation (erythema) vs capsaicin control group [3] [%]	clinical benefit [4]
Brc1c(NC2=NCCN2)ccc2nccnc12 [brimonidine]	50	around 50%	56	–
Cc1cc(C(C)(C)C)c(O)c(C)c1CC1=NCCN1 [oxymetazoline]	–	–	60	–
CC(C)(C)NC[C@H](O)COc1nsnc1N1CCOCC1 [timolol, (S)-1-(tert-butylamino)-3-[(4-morpholin-4-yl-1,2,5-thiadiazol-3-yl)oxy]propan-2-ol]	–	around 50%	44	no clinical benefit
